According to patent publication US7973051B2 (Hoffman-La Roche Inc., priority 2007, dated 2011):
One block for each compound: values may come before it.

Molecular target: T1, human liver FBPase (Homo sapiens, UniProt P09467)
T1 construct: made in house; host or cells: E. coli
T1 sequence (P09467 2-338 limits assumed): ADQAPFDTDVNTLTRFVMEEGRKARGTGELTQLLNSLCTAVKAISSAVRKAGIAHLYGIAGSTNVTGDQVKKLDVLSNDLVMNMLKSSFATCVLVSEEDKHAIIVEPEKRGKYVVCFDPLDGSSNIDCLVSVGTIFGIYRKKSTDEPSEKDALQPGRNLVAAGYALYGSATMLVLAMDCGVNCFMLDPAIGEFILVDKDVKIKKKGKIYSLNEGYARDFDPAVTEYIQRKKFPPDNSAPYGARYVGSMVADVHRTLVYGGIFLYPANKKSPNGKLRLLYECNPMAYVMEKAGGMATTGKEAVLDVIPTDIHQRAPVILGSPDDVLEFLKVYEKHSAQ
Assay: FBPase assay: inorganic phosphate release (malachite green)
Type: biochemical
Details: recombinant human liver FBPase, 50 μM fructose-1,6-bisphosphate, read-out at 620 nm
Experimental: The following tests were carried out for evaluating the inhibitory activity of the compounds of the present invention against human liver FBPase (Swissprot Data base reference P09467, entry F16P_HUMAN).
Human liver FBPase cDNA (NM_000507) was purchased from Origene Technologies, Inc, subcloned in a vector for expression in E. Coli., and sequenced. Recombinant human liver FBPase (hlFBPase) was purified according to the following protocol that uses heat denaturation similarly to that described by El-Maghrabi et. al. [El-Maghrabi, M. R. et al. “Isolation of a human liver fructose-1,6-bisphosphatase cDNA and expression of the protein in Escherichia coli.” J Biol Chem 268:9466-9472, 1993.]. Briefly, E. coli cells, transiently expressing very high levels of soluble and active human liver FBPase, were suspended in 20 mM Tris-HCl pH 7.5, 1 mM EDTA, 1 mM DTT and were lysed by French press. The soluble extract was heat denatured at 65° C. for 5 min, and insoluble, denatured proteins were removed by centrifugation. The extract was then applied to a BioRad Macro-Prep High Q column equilibrated with 20 mM Tris-HCl pH 7.5, 1 mM EDTA, 1 mM DTT and the flow-through (containing FBPase activity) was collected and applied to a BioRad Macro-Prep HS column equilibrated with 20 mM HEPES pH 7.2, 1 mM DTT. A gradient of increasing NaCl concentration was then applied to the HS column and fractions were collected. Fractions containing active FBPase were pooled and further purified by size exclusion chromatography on a Sephacryl S200 column equilibrated in 20 mM Tris-HCl pH 7.5, 150 mM NaCl, 1 mM EDTA, 1 mM DTT. Purity of the enzyme preparation was >90% as assessed by Mass spectrometry.
Recombinant human liver FBPase (hlFBPase) activity was assayed through measuring the inorganic phosphate release that results from the hydrolysis of Fructose-1,6-bisphosphate by the enzyme. As described by Baykov A. A. et al. in [Baykov A. A et al., “Malachite Green procedure for orthophosphate determination and its use in alkaline phosphatase-based enzyme immunoassays”. Anal. Biochem., 171:266-270, 1988], inorganic phosphate can be readily quantified by spectrophotometry at 620 nm after complexation with ammonium molybdate/malachite green reagent. Enzymatic reaction was carried out with modifications of the procedure described by Wright S. W. et al. [Wright S. W. et al., “Anilinoquinazoline inhibitors of Fructose-1,6-bisphosphatase bind to a novel allosteric site: synthesis, in vitro characterization, and X-ray crystallography”. J. Med. Chem. 45:3865-3877, 2002]. Specifically, the reaction was carried out in 96 well plates in a final volume of 100 μl in the presence or in the absence of allosteric inhibitors. Reaction was started adding 25 ng of hlFBPase to the reaction mixture containing 50 mM HEPES-KOH buffer pH 7.2, 2 mM MgCl2, 2 mM EDTA, 1 mM DTT, 50 μM fructose-1,6-bisphosphate and 1% DMSO. After 50 minutes incubation at room temperature, the phosphate released was allowed to form a colored complex for 10 min by adding 150 μl of ammonium molybdate/malachite green reagent containing 0.03% malachite green, 0.2% ammonium molybdate, 0.05% Triton X-100 and 0.7 M H2SO4 in water that was stirred for 30 min at room temperature and filtered through 0.2 μm filter. Under these conditions, the assay was linear with time and able to detect FBPase inhibition after spectrophotometric read-out at 620 nm.

Structure (SMILES): COCc1nc(NC(=O)NS(=O)(=O)c2cc(C)c(CCO)s2)sc1SC [Example 88, 5-(2-Hydroxyethyl)-N-{[4-(methoxymethyl)-5-(methylthio)-1,3-thiazol-2-yl]carbamoyl}-4-methylthiophene-2-sulfonamide]
IC50: 369 nM

Structure (SMILES): COCCc1sc(S(=O)(=O)NC(=O)Nc2ncc(OC)s2)cc1C [Example 97, 5-(2-Methoxyethyl)-N-[(5-methoxy-1,3-thiazol-2-yl)carbamoyl]-4-methylthiophene-2-sulfonamide]
IC50: 652 nM

Structure (SMILES): COc1sc(NC(=O)NS(=O)(=O)c2cn(C)c3c(OC)cccc23)nc1C [Example 52, 7-Methoxy-N-[(5-methoxy-4-methyl-1,3-thiazol-2-yl)carbamoyl]-1-methyl-1H-indole-3-sulfonamide]
IC50: 771 nM

Structure (SMILES): Cn1cc(S(=O)(=O)NC(=O)Nc2ncc(Br)s2)c2ccc(OCc3ccccc3)cc21 [Example 28, 6-(Benzyloxy)-N-[(5-bromo-1,3-thiazol-2-yl)carbamoyl]-1-methyl-1H-indole-3-sulfonamide]
IC50: 363 nM

Structure (SMILES): O=C(Nc1ncc(Br)s1)NS(=O)(=O)c1cc2cccc(Cl)c2s1 [Example 19, N-[(5-Bromo-1,3-thiazol-2-yl)carbamoyl]-7-chloro-1-benzothiophene-2-sulfonamide]
IC50: 268 nM

Structure (SMILES): COC(=O)c1ccc2c(S(=O)(=O)NC(=O)Nc3ncc(Br)s3)cn(C)c2c1 [Example 27, Methyl 3-({[(5-bromo-1,3-thiazol-2-yl)carbamoyl]amino}sulfonyl)-1-methyl-1H-indole-6-carboxylate]
IC50: 450 nM

Structure (SMILES): CCc1sc(NC(=O)NS(=O)(=O)c2cc(C)c(CCOC(C)=O)s2)nc1C(C)C [Example 75, 2-[5-({[(5-Ethyl-4-isopropyl-1,3-thiazol-2-yl)carbamoyl]amino}sulfonyl)-3-methyl-2-thienyl]ethyl acetate]
IC50: 256 nM

Structure (SMILES): O=C(Nc1ncc(Br)s1)NS(=O)(=O)c1csc2ccc(Cl)cc12 [Example 12, N-[(5-Bromo-1,3-thiazol-2-yl)carbamoyl]-5-chloro-1-benzothiophene-3-sulfonamide]
IC50: 370 nM

Structure (SMILES): COc1ccc2nc(NC(=O)NS(=O)(=O)c3cc(C)c(CCOC(C)=O)s3)sc2n1 [Example 55, 2-[5-({[(5-methoxy[1,3]thiazolo[5,4-b]pyridin-2-yl)carbamoyl]amino}sulfonyl)-3-methyl-2-thienyl]ethyl acetate]
IC50: 616 nM

Structure (SMILES): CCc1nc(NC(=O)NS(=O)(=O)c2cc(C)c(CCOC(C)=O)s2)sc1CC [Example 67, 2-[5-({[(4,5-Diethyl-1,3-thiazol-2-yl)carbamoyl]amino}sulfonyl)-3-methyl-2-thienyl]ethyl acetate]
IC50: 215 nM

Structure (SMILES): CCc1nc(NC(=O)NS(=O)(=O)c2csc(C)c2)sc1OC [Example 61, N-[(4-Ethyl-5-methoxy-1,3-thiazol-2-yl)carbamoyl]-5-methylthiophene-3-sulfonamide]
IC50: 466 nM

Structure (SMILES): COc1cnc(NC(=O)NS(=O)(=O)c2cc3cccc(OC)c3s2)s1 [Example 54]
IC50: 1280 nM

Structure (SMILES): COCc1oc(S(=O)(=O)NC(=O)Nc2nc(C)c(Br)s2)cc1C [Example 35, N-[(5-Bromo-4-methyl-1,3-thiazol-2-yl)carbamoyl]-5-(methoxymethyl)-4-methylfuran-2-sulfonamide]
IC50: 258 nM

Now those with a lower IC50, led by results:

IC50: 105 nM
Structure (SMILES): COc1cccc2cc(S(=O)(=O)NC(=O)Nc3ncc(Br)s3)sc12 [Example 39, N-[(5-bromo-1,3-thiazol-2-yl)carbamoyl]-7-methoxy-1-benzothiophene-2-sulfonamide]

IC50: 137 nM
Structure (SMILES): Cn1cc(S(=O)(=O)NC(=O)Nc2ncc(Br)s2)c2cccc(OCC(N)=O)c21 [Example 51, 2-{[3-({[(5-Bromo-1,3-thiazol-2-yl)carbamoyl]amino}sulfonyl)-1-methyl-1H-indol-7-yl]oxy}acetamide]

IC50: 38 nM
Structure (SMILES): COc1ccc(Cl)c2sc(NC(=O)NS(=O)(=O)c3cc(C)c(CCO)s3)nc12 [Example 92, N-[(7-Chloro-4-methoxy-1,3-benzothiazol-2-yl)carbamoyl]-5-(2-hydroxyethyl)-4-methylthiophene-2-sulfonamide]

IC50: 208 nM
Structure (SMILES): O=C(Nc1ncc(Br)s1)NS(=O)(=O)c1csc2c(Cl)cccc12 [Example 18, N-[(5-Bromo-1,3-thiazol-2-yl)carbamoyl]-7-chloro-1-benzothiophene-3-sulfonamide]

IC50: 188 nM
Structure (SMILES): CC(=O)OCCc1sc(S(=O)(=O)NC(=O)Nc2nc(C)c(Br)s2)cc1C [Example 64, 2-[5-({[(5-Bromo-4-methyl-1,3-thiazol-2-yl)carbamoyl]amino}sulfonyl)-3-methyl-2-thienyl]ethyl acetate]

IC50: 78 nM
Structure (SMILES): CCc1nc(NC(=O)NS(=O)(=O)c2cc(C)c(CCO)s2)sc1SC [Example 84, N-{[4-Ethyl-5-(methylthio)-1,3-thiazol-2-yl]carbamoyl}-5-(2-hydroxyethyl)-4-methylthiophene-2-sulfonamide]

IC50: 149 nM
Structure (SMILES): CCc1sc(NC(=O)NS(=O)(=O)c2cc(C)c(CCOC(C)=O)s2)nc1C [Example 68, 2-[5-({[(5-Ethyl-4-methyl-1,3-thiazol-2-yl)carbamoyl]amino}sulfonyl)-3-methyl-2-thienyl]ethyl acetate]

IC50: 160 nM
Structure (SMILES): CSc1sc(NC(=O)NS(=O)(=O)c2cc(C)c(CCOC(C)=O)s2)nc1C [Example 85, 2-{3-Methyl-5-[({[4-methyl-5-(methylthio)-1,3-thiazol-2-yl]carbamoyl}amino)sulfonyl]-2-thienyl}ethyl acetate]

IC50: 141 nM
Structure (SMILES): COc1cccc2sc(NC(=O)NS(=O)(=O)c3cc(C)c(CCO)s3)nc12 [Example 93, 5-(2-Hydroxyethyl)-N-[(4-methoxy-1,3-benzothiazol-2-yl)carbamoyl]-4-methylthiophene-2-sulfonamide]

IC50: 188 nM
Structure (SMILES): CCc1nc(NC(=O)NS(=O)(=O)c2csc(C)c2)sc1Br [Example 57, N-[(5-Bromo-4-ethyl-1,3-thiazol-2-yl)carbamoyl]-5-methylthiophene-3-sulfonamide]

IC50: 111 nM
Structure (SMILES): O=C(Nc1ncc(Br)s1)NS(=O)(=O)c1cc2cc(Cl)ccc2s1 [Example 13, N-[(5-Bromo-1,3-thiazol-2-yl)carbamoyl]-5-chloro-1-benzothiophene-2-sulfonamide]

IC50: 141 nM
Structure (SMILES): COc1ccc2cc(S(=O)(=O)NC(=O)Nc3ncc(Br)s3)sc2c1Br [Example 15, 7-Bromo-N-[(5-bromo-1,3-thiazol-2-yl)carbamoyl]-6-methoxy-1-benzothiophene-2-sulfonamide]

IC50: 168 nM
Structure (SMILES): CCc1sc(NC(=O)NS(=O)(=O)c2csc(C)c2)nc1C(C)C [Example 78, N-[(5-Ethyl-4-isopropyl-1,3-thiazol-2-yl)carbamoyl]-5-methylthiophene-3-sulfonamide]

IC50: 104 nM
Structure (SMILES): Cn1cc(S(=O)(=O)NC(=O)Nc2ncc(Br)s2)c2cccc(OCCO)c21 [Example 49, N-[(5-Bromo-1,3-thiazol-2-yl)carbamoyl]-7-(2-hydroxyethoxy)-1-methyl-1H-indole-3-sulfonamide]

IC50: 144 nM
Structure (SMILES): CCc1nc(NC(=O)NS(=O)(=O)c2cc(C)c(CCOC)s2)sc1SC [Example 82, N-{[4-Ethyl-5-(methylthio)-1,3-thiazol-2-yl]carbamoyl}-5-(2-methoxyethyl)-4-methylthiophene-2-sulfonamide]

IC50: 71 nM
Structure (SMILES): COc1cccc2c(S(=O)(=O)NC(=O)Nc3ncc(Br)s3)cn(C)c12 [Example 33, N-[(5-Bromo-1,3-thiazol-2-yl)carbamoyl]-7-methoxy-1-methyl-1H-indole-3-sulfonamide]
